Here are results for one compound from US6946475B1, “Anticancer calcium channel blockers” (University of Virginia Patent Foundation, priority 1999, dated 2005).

One test concerns Jurkat cells. Kind of test: Measurement of cellular proliferation, Jurkat cells. In kind it is cell-based. As to conditions: Jurkat, 48 hours; read-out: PROLIFERATION IC50 Jurkat. The procedure: (§1) Measurement of cellular proliferation: LNCaP cells at 2.5×10^4/well or PC3 cells at 5×10^4/well, both in a final volume of 100 μl, were plated in triplicate in standard flat bottom 96 well tissue culture plates in the presence of drug or vehicle (DMSO). Unless otherwise indicated, cells were grown for 48 hours at 37° C. in a CO2 incubator. Relative cell growth was determined with the CellTiter 96 aqueous cell proliferation assay (Promega, Madison, Wis.) as described by the manufacturer using an automated plate reader. Results were calculated in a blinded fashion and are means of triplicate determinations.
(§2) For the 48 hour proliferation, cells were cultured with calcium channel antagonists or without calcium channel antagonists. The IC50 values of the calcium channel antagonists were determined.
(§3) Using the measurement cell proliferation assay described hereinabove, the cell lines Jurkat, LNCap (prostate cancer cell), PC-31 (prostate cancer cell), DU145 (prostate cancer cell), MDA-468 (breast cancer cell), MDA-36 (Breast cancer cell), MCF-7 (breast cancer cell), MIA PaCa-2 (pancreatic cancer cell), Hep G2 (liver cancer cell), A549 (non-small cell lung cancer cells), NCI H460 (non-small cell lung cancer cells), HT-29 (colon cancer cell), HCT-116 (colon cancer cell) and SK OV-3 (ovarian cancer cell) were cultured in the presence of TH-1177, TH-1205, TH-1201, TH-2109, TH-2029, TH-2043, TN-2085 and TH-2279.

Test [1] deals with PC3 prostate cancer cells. Kind of test: Measurement of cellular proliferation, PC3 cells. Format: cell-based, human. The procedure:
as §1, §2, §3

The test system of test [2] is DU145 (prostate cancer cell). Kind of test: Measurement of cellular proliferation, DU145 cells. Format: cell-based. As to conditions: DU 145, 48 hours. The procedure: as §1, §2, §3
Test [3] relates to MDA-468 (breast cancer cell). Kind of test: Measurement of cellular proliferation, MDA-468 cells. As to conditions: MDA-468, 48 hours. Format: cell-based. The procedure:
as §1, §2, §3

The test system of test [4] is NCI H460 (non-small cell lung cancer cells). Kind of test: Measurement of cellular proliferation, NCI H460 cells. As to conditions: NCI H460, 48 hours; read-out: PROLIFERATION IC50 NCl H460. In kind it is cell-based. The procedure:
as §1, §2, §3

The test system of the next test is PC3 cells. Description: Survival of SCID mice inoculated with PC3 cells. Format: in vivo. The procedure:
Animal Studies: All protocols were approved by the Animal Care Committee of the University of Virginia. SCID mice were housed in a barrier isolation facility of the University of Virginia Department of Comparative Medicine and all personnel observed sterile techniques when entering the facility and handling animals. TH-1177 was dissolved in ethanol and diluted 10-fold in sterile phosphate buffered saline (PBS) immediately prior to each day's injection. Injection volumes of 0.5 ml per animal were used. Vehicle consisted of PBS diluted ethanol. PC3 cells for injection were prepared by washing in sterile PBS three times prior to suspension to 2×10^6 per ml. Each animal received a daily IP injection of vehicle or drug beginning on day 1.
Statistical methods: In vivo survival data were analyzed with Prism 2.01 (GraphPad Software, San Diego, Calif.). The results of the Kaplan-Meier analysis are presented as one-tailed probabilities because there was no reasonable expectation that drug treatment would cause the mice to succumb more rapidly to the implanted cancer than would control animals.
TH-1177 slowed prostate cancer progression in vivo. […] One day later, daily IP injections of TH-1177 or vehicle alone were begun. TH1177 was administered at doses or either 3 mg/kg or 10 mg/kg. […]

Test [5] addresses T1, α1G subunit of a calcium channel (Homo sapiens, UniProt O43497).
T1 construct: expressed in transfected cells
Description: Whole cell current recording, Xenopus oocytes transfected with α1G subunit. Format: cell-based. The procedure:
The procedure of Example 9 was repeated except the cells were transfected with 2 μg of α1G subunit prepared in accordance with the procedure described in Cribbs, et al., FEBS Letters, 66, 54-58 (2000). Here the cells were depolarized using the depolarizing medium of Example 9. When the current reached the maximum level, then 10 μm pH 1177 was added to the medium and the change in current was observed. The current was measured at about zero pA. When the current remained constant, the TH-1177 was washed out, in accordance with the procedure in Example 9 and the change in the current value was again recorded.

The structures appear in SMILES notation. Where two headings read alike, the source gives them in different places.

T1 sequence (O43497 1-2171 isoform O43497-5): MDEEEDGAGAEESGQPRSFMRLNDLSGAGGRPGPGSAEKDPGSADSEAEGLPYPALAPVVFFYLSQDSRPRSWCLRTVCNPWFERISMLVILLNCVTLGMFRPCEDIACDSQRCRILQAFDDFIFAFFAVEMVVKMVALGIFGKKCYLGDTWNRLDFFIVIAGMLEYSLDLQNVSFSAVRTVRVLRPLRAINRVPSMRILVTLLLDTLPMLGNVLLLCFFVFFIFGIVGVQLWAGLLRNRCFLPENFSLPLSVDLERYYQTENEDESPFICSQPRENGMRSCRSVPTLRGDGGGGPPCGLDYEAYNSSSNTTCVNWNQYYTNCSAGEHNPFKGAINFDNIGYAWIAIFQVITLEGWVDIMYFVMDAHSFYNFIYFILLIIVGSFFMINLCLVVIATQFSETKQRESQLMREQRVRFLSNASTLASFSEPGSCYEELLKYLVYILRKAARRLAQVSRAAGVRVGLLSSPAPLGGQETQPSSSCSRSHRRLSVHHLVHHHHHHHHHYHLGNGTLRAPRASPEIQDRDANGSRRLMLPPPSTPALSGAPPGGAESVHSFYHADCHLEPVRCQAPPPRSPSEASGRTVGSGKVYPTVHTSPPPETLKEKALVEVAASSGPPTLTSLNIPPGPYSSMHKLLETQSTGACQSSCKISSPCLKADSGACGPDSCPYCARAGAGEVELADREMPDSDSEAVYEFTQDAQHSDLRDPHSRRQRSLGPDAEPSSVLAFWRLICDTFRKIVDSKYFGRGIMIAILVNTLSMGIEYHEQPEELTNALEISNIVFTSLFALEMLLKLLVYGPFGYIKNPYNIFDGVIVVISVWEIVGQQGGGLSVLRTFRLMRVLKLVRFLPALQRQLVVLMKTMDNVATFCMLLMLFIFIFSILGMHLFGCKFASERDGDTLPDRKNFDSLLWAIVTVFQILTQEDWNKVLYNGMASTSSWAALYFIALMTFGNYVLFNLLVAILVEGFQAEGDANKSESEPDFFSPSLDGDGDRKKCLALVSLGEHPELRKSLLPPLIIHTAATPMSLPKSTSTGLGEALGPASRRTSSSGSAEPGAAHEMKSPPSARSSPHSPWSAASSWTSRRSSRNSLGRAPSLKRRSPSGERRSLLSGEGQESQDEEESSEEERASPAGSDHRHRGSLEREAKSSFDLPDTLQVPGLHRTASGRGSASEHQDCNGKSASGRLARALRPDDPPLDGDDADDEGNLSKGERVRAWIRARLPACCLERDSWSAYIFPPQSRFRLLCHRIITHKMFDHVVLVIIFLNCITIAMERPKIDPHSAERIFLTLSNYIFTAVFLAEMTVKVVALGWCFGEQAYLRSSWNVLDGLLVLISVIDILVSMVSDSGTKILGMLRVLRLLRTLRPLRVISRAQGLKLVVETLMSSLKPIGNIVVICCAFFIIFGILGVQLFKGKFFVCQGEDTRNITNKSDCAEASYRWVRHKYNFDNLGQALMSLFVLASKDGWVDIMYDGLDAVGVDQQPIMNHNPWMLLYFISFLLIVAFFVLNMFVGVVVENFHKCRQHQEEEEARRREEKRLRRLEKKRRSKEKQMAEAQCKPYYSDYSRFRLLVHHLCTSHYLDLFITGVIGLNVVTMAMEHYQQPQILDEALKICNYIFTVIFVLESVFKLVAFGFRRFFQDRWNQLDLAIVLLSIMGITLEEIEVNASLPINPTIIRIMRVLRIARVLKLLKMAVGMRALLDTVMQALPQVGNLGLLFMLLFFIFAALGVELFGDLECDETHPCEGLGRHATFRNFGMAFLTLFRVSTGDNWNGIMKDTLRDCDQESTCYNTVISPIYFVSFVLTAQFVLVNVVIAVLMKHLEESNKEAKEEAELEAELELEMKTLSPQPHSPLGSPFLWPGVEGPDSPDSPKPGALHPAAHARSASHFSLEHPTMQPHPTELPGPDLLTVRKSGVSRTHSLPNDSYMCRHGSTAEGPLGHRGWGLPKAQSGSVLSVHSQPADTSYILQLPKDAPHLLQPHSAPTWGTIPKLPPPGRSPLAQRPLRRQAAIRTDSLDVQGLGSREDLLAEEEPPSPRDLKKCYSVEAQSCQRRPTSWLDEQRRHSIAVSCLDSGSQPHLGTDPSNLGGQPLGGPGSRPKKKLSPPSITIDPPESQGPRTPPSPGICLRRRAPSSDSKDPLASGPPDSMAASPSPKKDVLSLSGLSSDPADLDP

In the case of `COc1ccc(CCN2CCC[C@H]2COC(c2ccccc2)c2ccc(Cl)cc2)cc1` (stereo partly shown) [TH-1177], the IC50 with Jurkat cells turned out to be 8 µM; in test [1] (FIG. 6B, 48 hours, read-out: IC50 for inhibition of PC3 proliferation), 14 µM; in test [1] (PC-3, 48 hours, read-out: PROLIFERATION IC50 PC-3), 15 µM; in test [2] it was 19 µM; in test [3], 13 µM; in test [4], 15 µM. Also, the Life span increase with PC3 cells (3 mg/kg/d daily IP, p=0.047) worked out at 34%; with PC3 cells (10 mg/kg/d daily IP, p=0.0044), 38%. The “Current in depolarized α1G-transfected cells” value in test [5] (10 μm added at maximum current) is “about zero”. In addition, the “Ability of calcium to cross the cell membrane” value in test [5] (α1G-transfected Xenopus oocytes, restored on washout) was “completely inhibits”.
